Test results from patent publication EP4570802A1, “SALT TYPE AND CRYSTAL FORM OF BENZAZEPINE FUSED RING COMPOUND AND USE THEREOF” (SHANGHAI JEYOU PHARMACEUTICAL CO., LTD., priority 2022, dated 2024).
≈ marks a conversion by molar mass, not a printed value. Where a name gives a salt, the structure may show the parent alone. Read-outs that look alike come from different tables or passages of the source.

Tests used:
Type in all cases: physicochemical
[1] = Dynamic vapor sorption analysis (DVS)
Experimental: Dynamic vapor sorption analysis was performed using DVS Intrinsic (SMS, UK). The test was performed in gradient mode with a humidity change of 50%-95%-0%-50%, and 10% humidity change per gradient in the range of 0% to 90%. The gradient endpoint was determined by dm/dt, and was defined as when dm/dt was less than 0.002% and maintained for 10 minutes. After the test was completed, the sample was analyzed by XRPD to confirm whether the solid morphology had changed.

[2] = Solubility test in biological media (dynamic solubility in FaSSIF, FeSSIF, FaSSGF; pH of the 24-hour supernatant; XRPD of remaining solid); conditions: for Final pH: 24-hour supernatant; for Solubility (mg/mL) 0.5 h: 30 min; for Solubility (mg/mL) 2h: 120 min; for Solubility (mg/mL) 24 h: 1440 min; for XRPD for remaining solid: remaining solid after 24 hours; for solubility at 0.5 h: read-out: Solubility (mg/mL) 0.5 h; for solubility at 2 h: read-out: Solubility (mg/mL) 2h; for solubility at 24 h: read-out: Solubility (mg/mL) 24 h
Experimental: Samples of different crystal forms were added to biological media and shaken at a constant temperature of 37°C for 24 hours, followed by sampling at 0.5 hours, 2 hours, and 24 hours, respectively, and the sampled solution was filtered using a 0.22 µm hydrophilic filter membrane. Some of the samples with higher concentrations were appropriately diluted with a diluent, and the signal peak area of the solution was measured by HPLC. Finally, the concentration of the compound in the solution was calculated based on the peak area, the HPLC standard curve of the starting material, and the dilution factor. In addition, the 24-hour supernatant was tested for pH, and the remaining solid was subjected to XRPD testing.

[3] = Stability study (solid state, XRPD characterization after 7 days and 15 days); conditions: for Results after 7 days: XRPD characterization after 7 days; for Results after 15 days: XRPD characterization after 15 days
Experimental: Approximately 20 mg of sample was weighed into a weighing bottle and exposed to high temperature (60°C), high humidity (25°C/92.5% RH), light (25°C/4500 Lux), and accelerated (40°C/75% RH) conditions, followed by sampling for XRPD characterization after 7 days and 15 days.
Samples were taken for XRPD characterization after 7 days and 15 days. 62 to 65. […]

[4] = FaSSGF, listed as Crystal form A of maleate
[5] = FaSSGF, pH 1.6, 37°C, listed as Crystal form A of maleate
[6] = FaSSIF, listed as Crystal form A of maleate
[7] = FaSSIF, pH 6.5, 37°C, listed as Crystal form A of maleate
[8] = FeSSIF, listed as Crystal form A of maleate
[9] = FeSSIF, pH 5.0-5.1, 37°C, listed as Crystal form A of maleate
[10] = FaSSGF, listed as Crystal form C of fumarate
[11] = FaSSIF, listed as Crystal form C of fumarate
[12] = FeSSIF, listed as Crystal form C of fumarate
[13] = FaSSGF, listed as Crystal form N
[14] = FaSSGF, pH 1.6, 37°C, listed as Crystal form N
[15] = FaSSIF, listed as Crystal form N
[16] = FaSSIF, pH 6.5, 37°C, listed as Crystal form N
[17] = FeSSIF, listed as Crystal form N
[18] = FeSSIF, pH 5.0-5.1, 37°C, listed as Crystal form N
[19] = Water, listed as Crystal form N
[20] = FaSSGF, listed as Crystal form S
[21] = FaSSGF, pH 1.6, 37°C, listed as Crystal form S
[22] = FaSSIF, listed as Crystal form S
[23] = FaSSIF, pH 6.5, 37°C, listed as Crystal form S
[24] = FeSSIF, listed as Crystal form S
[25] = FeSSIF, pH 5.0-5.1, 37°C, listed as Crystal form S
[26] = Water, listed as Crystal form S

O=C(Nc1ccc(C(=O)N2CC[C@@H]3CCN[C@H]3c3cc(Cl)ccc32)cn1)c1ccccc1C(F)(F)F [crystal form A of maleate]
weight loss ([1]; DVS, at 0% RH): 0.24% | weight gain ([1]; DVS, at 80% RH): 0.09% | weight gain ([1]; DVS, at 95% RH): 0.23% | hygroscopicity ([1]; conclusion from DVS): almost no hygroscopicity | XRPD after DVS testing ([1]; solid form after DVS testing): no morphological change | Final pH [2, 4]: 1.7 | Solubility (mg/mL) 0.5 h [2, 5]: 1.44 mg/mL | Solubility (mg/mL) 2h [2, 5]: 1.43 mg/mL | Solubility (mg/mL) 24 h [2, 5]: 1.02 mg/mL | XRPD for remaining solid [2, 4]: Crystal form A of maleate + new peak | Final pH [2, 6]: 6.1 | Solubility (mg/mL) 0.5 h [2, 7]: 0.66 mg/mL | Solubility (mg/mL) 2h [2, 7]: 0.69 mg/mL | Solubility (mg/mL) 24 h [2, 7]: 0.57 mg/mL | XRPD for remaining solid [2, 6]: Obvious change | Final pH [2, 8]: 5.0 | Solubility (mg/mL) 0.5 h [2, 9]: 1.08 mg/mL | Solubility (mg/mL) 2h [2, 9]: 1.28 mg/mL | Solubility (mg/mL) 24 h [2, 9]: 0.31 mg/mL | XRPD for remaining solid [2, 8]: Obvious change | stability (crystal transformation by XRPD) ([3]; high temperature (60°C), high humidity (25°C/92.5% RH), light (25°C/4500 Lux) and accelerated (40°C/75% RH) conditions, 15 days): stable

O=C(Nc1ccc(C(=O)N2CC[C@@H]3CCN[C@H]3c3cc(Cl)ccc32)cn1)c1ccccc1C(F)(F)F [crystal form C of fumarate]
Final pH [2, 10]: 1.7 | solubility at 0.5 h ([2]; FaSSGF, pH 1.6, 37°C): 0.65 mg/mL | solubility at 2 h ([2]; FaSSGF, pH 1.6, 37°C): 0.7 mg/mL | solubility at 24 h ([2]; FaSSGF, pH 1.6, 37°C): 0.71 mg/mL | XRPD for remaining solid [2, 10]: Obvious change | Final pH [2, 11]: 6.1 | solubility at 0.5 h ([2]; FaSSIF, pH 6.5, 37°C): 0.38 mg/mL | solubility at 2 h ([2]; FaSSIF, pH 6.5, 37°C): 0.35 mg/mL | solubility at 24 h ([2]; FaSSIF, pH 6.5, 37°C): 0.28 mg/mL | XRPD for remaining solid [2, 11]: Crystal form C of fumarate + new peak | Final pH [2, 12]: 5.0 | solubility at 0.5 h ([2]; FeSSIF, pH 5.0-5.1, 37°C): 0.66 mg/mL | solubility at 2 h ([2]; FeSSIF, pH 5.0-5.1, 37°C): 0.74 mg/mL | solubility at 24 h ([2]; FeSSIF, pH 5.0-5.1, 37°C): 0.68 mg/mL | XRPD for remaining solid [2, 12]: Crystal form C of fumarate + new peak

O=C(Nc1ccc(C(=O)N2CC[C@@H]3CCN[C@H]3c3cc(Cl)ccc32)cn1)c1ccccc1C(F)(F)F [crystal form N]
Final pH [2, 13]: 2.0 | Solubility (mg/mL) 0.5 h [2, 14]: > 7.61 mg/mL | Solubility (mg/mL) 2h [2, 14]: > 7.89 mg/mL | Solubility (mg/mL) 24 h [2, 14]: > 7.98 mg/mL | XRPD for remaining solid [2, 13]: No solid | Final pH [2, 15]: 6.5 | Solubility (mg/mL) 0.5 h [2, 16]: 0.06 mg/mL (≈ 117 µM) | Solubility (mg/mL) 2h [2, 16]: 0.07 mg/mL (≈ 136 µM) | Solubility (mg/mL) 24 h [2, 16]: 0.08 mg/mL (≈ 155 µM) | XRPD for remaining solid [2, 15]: Crystal form N | Final pH [2, 17]: 5.1 | Solubility (mg/mL) 0.5 h [2, 18]: 0.80 mg/mL (≈ 1550 µM) | Solubility (mg/mL) 2h [2, 18]: 0.97 mg/mL (≈ 1880 µM) | Solubility (mg/mL) 24 h [2, 18]: 0.94 mg/mL (≈ 1830 µM) | XRPD for remaining solid [2, 17]: Crystal form N | Final pH [2, 19]: 7.5 | Solubility (mg/mL) 2h ([2]; Water, 37°C, listed as Crystal form N): 0.011 mg/mL (≈ 21.4 µM) | XRPD for remaining solid [2, 19]: Crystal form N | solubility at 0.5 h ([2]; water, 37°C): 0.004 mg/mL (≈ 7.77 µM) | solubility at 24 h ([2]; water, 37°C): 0.004 mg/mL (≈ 7.77 µM) | Results after 7 days ([3]; Accelerated, 40°C/75% RH): No change | Results after 15 days ([3]; Accelerated, 40°C/75% RH): No change | Results after 7 days ([3]; High humidity, 25°C/92.5% RH): No change | Results after 15 days ([3]; High humidity, 25°C/92.5% RH): No change | Results after 7 days ([3]; Light, 25°C/4500 Lux): No change | Results after 15 days ([3]; Light, 25°C/4500 Lux): No change

O=C(Nc1ccc(C(=O)N2CC[C@@H]3CCN[C@H]3c3cc(Cl)ccc32)cn1)c1ccccc1C(F)(F)F [crystal form S]
Final pH [2, 20]: 2.0 | Solubility (mg/mL) 0.5 h [2, 21]: > 7.19 mg/mL | Solubility (mg/mL) 2h [2, 21]: > 7.35 mg/mL | Solubility (mg/mL) 24 h [2, 21]: 2.15 mg/mL (≈ 4180 µM) | XRPD for remaining solid [2, 20]: Amorphous* | Final pH [2, 22]: 6.5 | Solubility (mg/mL) 0.5 h [2, 23]: 0.03 mg/mL (≈ 58.3 µM) | Solubility (mg/mL) 2h [2, 23]: 0.04 mg/mL (≈ 77.7 µM) | Solubility (mg/mL) 24 h [2, 23]: 0.04 mg/mL (≈ 77.7 µM) | XRPD for remaining solid [2, 22]: Crystal form S | Final pH [2, 24]: 5.1 | Solubility (mg/mL) 0.5 h [2, 25]: 0.40 mg/mL (≈ 777 µM) | Solubility (mg/mL) 2h [2, 25]: 0.44 mg/mL (≈ 854 µM) | Solubility (mg/mL) 24 h [2, 25]: 0.43 mg/mL (≈ 835 µM) | XRPD for remaining solid [2, 24]: Crystal form S | Final pH [2, 26]: 7.4 | Solubility (mg/mL) 2h ([2]; Water, 37°C, listed as Crystal form S): 0.001 mg/mL (≈ 1.94 µM) | XRPD for remaining solid [2, 26]: Crystal form S | Results after 7 days ([3]; High temperature, 60°C): No change | Results after 15 days ([3]; High temperature, 60°C): No change
